# Target: T1, FLT3 (Homo sapiens, UniProt P36888)
# T1 construct: FLT3(DKIN); made in house
# T1 sequence (P36888 610-943 limits assumed): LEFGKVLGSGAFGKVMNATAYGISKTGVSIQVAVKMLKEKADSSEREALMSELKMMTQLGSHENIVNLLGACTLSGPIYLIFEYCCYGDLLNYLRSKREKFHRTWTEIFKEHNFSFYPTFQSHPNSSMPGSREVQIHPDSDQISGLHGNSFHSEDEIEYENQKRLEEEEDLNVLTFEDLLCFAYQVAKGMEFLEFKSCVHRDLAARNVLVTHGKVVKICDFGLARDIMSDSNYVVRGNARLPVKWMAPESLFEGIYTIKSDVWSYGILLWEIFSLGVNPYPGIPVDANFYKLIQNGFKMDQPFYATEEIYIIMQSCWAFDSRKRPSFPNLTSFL
# Assay: Binding constant (Kd) measurement, phage-displayed kinase competition binding assay
# Details: FLT3(DKIN) construct
# Excerpt: Binding Constant (Kd) Measurements for Small-Molecule-Kinase Interactions
# The term “ND” represents non-determined values.
SMILES,Binding Assay: FLT3(DKIN),Kd
Cc1cc(NC(=O)Nc2ccc(OCc3ccccc3)cc2)n(-c2ccccc2)n1 [Compound H4],+ + +,
CC(C)(C)c1cc(NC(=O)Nc2ccc(NC(=O)C3CCCCC3)cc2)no1 [Compound N91],+ + + +,
CC(C)(C)c1cc(NC(=O)Nc2ccc(Cl)cc2Cl)no1 [Compound A7],+ + +,
CC(C)(C)c1cc(NC(=O)Nc2ccccc2)no1 [Compound A34],+ + +,
CC(C)(C)c1cc(NC(=O)Nc2ccc(CC(=O)O)cc2)no1 [Compound C3],+ +,
CC(C)(C)c1cc(NC(=O)Nc2ccc(C(=O)NCc3ccccc3)cc2)no1 [Compound N89],+ + +,
Cc1c(NC(=O)Nc2cc(C(C)(C)C)on2)c(=O)n(-c2ccccc2)n1C [Compound Z45],+ +,
CSc1ccc(NC(=O)Nc2cc(C(C)(C)C)no2)cc1 [Compound A39],+ + +,
Cn1nc(C(C)(C)C)cc1NC(=O)Nc1ccc(F)cc1 [Compound Z19],+ + +,
COc1ccc(N2CCCN(c3cc(C(C)(C)C)no3)C2=O)cc1 [Compound E5],+ +,
CC(C)c1ccc(NC(=O)Nc2cc(C(C)(C)C)no2)cc1 [Compound A11],+ +,
CC(C)(C)c1cc(NC(=O)Nc2ccc(Cl)cc2)on1 [Compound A32],+ + +,
Cn1nc(C(C)(C)C)cc1NC(=O)Nc1ccc(Cl)cc1 [Compound D11],+ + +,
COc1ccc(NC(=O)Nc2cc(C(C)(C)C)nn2-c2ccc(C)cc2)cc1 [Compound H15],+ + + +,
CC(C)(C)c1cc(NC(=O)Nc2ccc(F)cc2)no1 [Compound A47],+ + +,
CC(C)(C)c1cc(NC(=O)Nc2ccc(-c3nc(-c4ccc(C(F)(F)F)cc4)no3)cc2)no1 [Compound P8],+ + +,
Cc1ccc(NC(=O)Nc2cc(C(F)(F)F)cc(Cl)n2)cc1 [Compound W1],+ + + +,
CC(C)(C)c1cc(NC(=O)Nc2ccc(C(=O)O)cc2)no1 [Compound C2],+ +,
CSc1ccc(NC(=O)Nc2cc(C(C)(C)C)on2)cc1 [Compound A37],+ + + +,
COc1ccc(N(C)C(=O)Nc2cc(C(C)(C)C)on2)cc1 [Compound J10],+ + +,
CC(Oc1ccc(NC(=O)Nc2cc(C(C)(C)C)on2)cc1)c1ccccc1 (centres unmarked) [Compound G17],+ + + +,
CC(C)(C)c1cc(NC(=O)Nc2ccc(OCC(O)CO)cc2)no1 (centres unmarked) [Compound G28],+ + + +,
CC(C)(C)c1cc(NC(=O)Nc2cccc(Cl)c2)no1 [Compound A48],+ + +,
O=C(Nc1ccc(Cl)cc1)Nc1cc(C(F)(F)F)cc(Cl)n1 [Compound Z76],+ + +,
CCOC(=O)NN(C(=O)Nc1cc(C(C)(C)C)on1)c1ccc(OC)cc1 [Compound J13],+ + +,

SMILES,Binding Assay: FLT3(DKIN),Kd
CC(C)(C)c1cc(NC(=O)Nc2ccc(NS(=O)(=O)c3ccccc3)cc2)no1 [Compound V1],+ +,
CC(C)(C)c1cc(NC(=O)Nc2ccc(NC(=O)Cc3ccc(OCc4ccccc4)cc3)cc2)no1 [Compound N98],+ + +,
CC(C)(C)c1cc(NC(=O)NN2CCCCC2)no1 [Compound Z57],+ + +,
C/C=C/C(=O)Nc1ccc(NC(=O)Nc2cc(C(C)(C)C)on2)cc1 [Compound N93],+ + +,
CC(C)(C)c1cc(NC(=O)Nc2ccc(OCc3c(Cl)cccc3Cl)cc2)no1 [Compound G19],+ + + +,
O=C(Nc1cccc(Cl)c1)Nc1cc(C(F)(F)F)cc(Cl)n1 [Compound Z74],+ + +,
O=C(Nc1ccc(Cl)cc1)Nc1cc(C2CC2)nn1-c1ccccc1 [Compound D2],+ + + +,
"Cc1ccc(-n2nc(C(C)(C)C)cc2NC(=O)Nc2ccc(C(C)C)cc2)cc1 [Compound D1, 1-(3-tert-butyl-1-p-tolyl-1H-pyrazol-5-yl)-3-(4-isopropylphenyl)urea]",+ +,
Cc1ccc(NC(=O)Nc2cc(C(C)(C)C)on2)cc1 [Compound A33],+ + + +,
CN1CN(c2ccc(OCc3ccccc3)cc2)C(=O)N(c2cc(C(C)(C)C)on2)C1 [Compound E4],+ + +,
CC(C)(C)c1cc(NC(=O)Nc2ccc(C(=O)NCCO)cc2)no1 [Compound N87],+ + +,
COc1ccc(N(C)C(=O)N(C)c2cc(C(C)(C)C)no2)cc1 [Compound J8],,> 10 µM
CC(C)(C)c1cc(N2CCCN(c3ccc(OCc4ccccc4)cc3)C2=O)on1 [Compound E2],+ + +,
O=C(Nc1ccc(Br)cc1)Nc1cc(C(F)(F)F)cc(Cl)n1 [Compound Z72],+ + +,
CC(C)(C)c1cc(NC(=O)Nc2ccc(C(N)=O)cc2)no1 [Compound N86],+ + + +,
Cc1ccc(S(=O)(=O)Nc2ccc(NC(=O)Nc3cc(C(C)(C)C)on3)cc2)cc1 [Compound V2],+ +,
Cc1ccc(-n2nc(C(C)(C)C)cc2NC(=O)Nc2cc(C(C)(C)C)on2)cc1 [Compound H11],+ + + +,
Cc1ccc(-n2nc(C(C)(C)C)cc2NC(=O)Nc2ccc(OCc3ccccc3)cc2)cc1 [Compound H5],+ + + +,
Cc1ccc(CNc2ccc(NC(=O)Nc3cc(C(C)(C)C)on3)cc2)cc1 [Compound O9],+ + + +,
CC(C)(C)c1cc(NC(=O)Nc2ccc(O)cc2)no1 [Compound A31],+ + +,
CCCCc1ccc(NC(=O)Nc2cc(C(C)(C)C)nn2C)cc1 [Compound D12],+ + +,
O=C(Nc1ccc(Cl)cc1)Nc1ccc(-n2nc(Br)c(Br)c2Br)cc1 [Compound Z49],+ + +,
CCN(CC)CCNC(=O)c1ccc(NC(=O)Nc2cc(C(C)(C)C)on2)cc1 [Compound N102],,> 10 µM
COc1ccc(NC(=O)Nc2cc(C(C)(C)C)no2)cc1 [Compound A30],+ + + +,
CC(C)(C)c1cc(NC(=O)Nc2ccc(OC(F)(F)F)cc2)on1 [Compound A13],+ +,

SMILES,Binding Assay: FLT3(DKIN),Kd
Cc1ccc(-n2nc(C(C)(C)C)cc2NC(=O)Nc2ccc(Cl)cc2)cc1 [Compound H14],+ + + +,
Cn1nc(C2CC2)cc1NC(=O)Nc1ccc(OCc2ccccc2)cc1 [Compound H7],+ +,
O=C(Nc1ccc(Cl)cc1)Nc1cc(C2CC2)nn1-c1ccccc1 [Compound D10],+ + +,
Cc1ccc(-n2nc(C(C)(C)C)cc2NC(=O)Nc2ccc(O)cc2)cc1 [Compound H12],+ + +,
CC(C)(C)c1cc(NC(=O)Nc2ccc(OC(F)F)cc2)no1 [Compound A12],+ +,
CC(C)(C)c1cc(NC(=O)Nc2ccc(-c3ccccc3)cc2)no1 [Compound A23],+ + + +,
COc1ccc(N(N)C(=O)Nc2cc(C(C)(C)C)on2)cc1 [Compound J14],+ + +,
CC(C)c1ccc(NC(=O)Nc2cc(C(C)(C)C)on2)cc1 [Compound A25],+ +,
CC(C)(C)c1cc(NC(=O)Nc2ccc(NC(=O)c3c(Cl)cccc3Cl)cc2)no1 [Compound N94],+ + + +,
CC(C)(C)c1cc(NC(=O)Nc2ccc3cc4ccccc4cc3c2)no1 [Compound A18],+ + +,
"CC(C)(C)c1cc(NC(=O)Nc2ccc(Cl)c(C(F)(F)F)c2)no1 [Compound A1, 1-(5-tert-butylisoxazol-3-yl)-3-(4-chloro-3-(trifluoromethyl)phenyl)urea]",+ + +,
CC(C)(C)c1cc(NC(=O)Nc2ccc(NC(=O)c3c(F)cccc3C(F)(F)F)cc2)no1 [Compound N95],+ + +,
"CC(C)(C)c1cc(NC(=S)Nc2ccc(N3CCOCC3)cc2)no1 [Compound F1, 1-(5-tert-butylisoxazol-3-yl)-3-(4-morpholinophenyl)thiourea]",,> 10 µM
CC(C)(C)c1cc(NC(=O)Nc2ccc(Oc3ccccc3)cc2)no1 [Compound A24],+ + + +,
C[C@H](NC(=O)c1ccc(NC(=O)Nc2cc(C(C)(C)C)on2)cc1)c1ccccc1 [Compound N88],+ + +,
O=C(Nc1ccc(OCc2ccccc2)cc1)Nc1cc(C2CC2)nn1-c1ccccc1 [Compound H8],+ + +,
CC(C)(C)c1cc(NC(=O)Nc2ccc(OCCN3CCOCC3)c3ccccc23)no1 [Compound K1],+ + +,
CC(C)(C)c1cc(NC(=O)Nc2ccc(C(=O)NCc3ccc4c(c3)OCO4)cc2)no1 [Compound N97],+ + +,
COc1cccc(CNC(=O)Nc2cc(C(C)(C)C)on2)c1 [Compound B3],+ + + +,
CC(C)(C)c1cc(NC(=O)Nc2ccc(Cl)cc2)no1 [Compound A27],+ + +,
COc1ccc(NC(=O)Nc2cc(C(C)(C)C)on2)cc1 [Compound A29],+ + + +,
C[S+]([O-])c1ccc(NC(=O)Nc2cc(C(C)(C)C)on2)cc1 (centres unmarked) [Compound A46],+ + +,
CC(=O)NS(=O)(=O)c1ccc(NC(=O)Nc2cc(C(C)(C)C)on2)cc1 [Compound V4],,> 10 µM
CC(C)(C)c1cc(NC(=O)Nc2ccc(S(=O)(=O)Nc3ncccn3)cc2)no1 [Compound V3],,> 10 µM

# — patent US20050267182A1, “Urea derivatives as FLT-3 modulators” (Ambit Biosciences Corporation, priority 2003, published 2005)
